Literature values, collected in US20250144071A1, “METHOD FOR PRODUCING ELLAGIC ACID-CONTAINING COMPOSITION AND ELLAGIC ACID-CONTAINING COMPOSITION” (SUMITOMO CHEMICAL COMPANY, LIMITED, priority 2022, published 2025).

O=c1oc2c(O)c(O)cc3c(=O)oc4c(O)c(O)cc1c4c23 [ellagic acid]
Solubility of ellagic acid in water: about 20 μg/mL
